The source of these data is article PMC12458683, “Water-Based Pharmacophore Modeling in Kinase Inhibitor Design: A Case Study on Fyn and Lyn Protein Kinases” (Journal of Chemical Information and Modeling, 2025).

A word on the IC50: it is the concentration that gives 50% inhibition. A high value points to a need for much substance.

The target of experiment [1] is T1, Fyn (h) (Homo sapiens, UniProt P06241).
T1 construct: Eurofins KinaseProfiler enzyme
Description: radiometric kinase assay ([gamma-33P]-ATP, filter binding), 9-point dilution. Format: biochemical. The source says: radiometric kinase assay ([gamma-33P]-ATP, filter binding), 9-point dilution on Fyn (h)

For experiment [2], the target named is T2, Lyn (h) (Homo sapiens, UniProt P07948).
T2 construct: Eurofins KinaseProfiler enzyme
The description is as above. Format: biochemical. The source says: radiometric kinase assay ([gamma-33P]-ATP, filter binding), 9-point dilution on Lyn (h)

T2 sequence (P07948 2-512): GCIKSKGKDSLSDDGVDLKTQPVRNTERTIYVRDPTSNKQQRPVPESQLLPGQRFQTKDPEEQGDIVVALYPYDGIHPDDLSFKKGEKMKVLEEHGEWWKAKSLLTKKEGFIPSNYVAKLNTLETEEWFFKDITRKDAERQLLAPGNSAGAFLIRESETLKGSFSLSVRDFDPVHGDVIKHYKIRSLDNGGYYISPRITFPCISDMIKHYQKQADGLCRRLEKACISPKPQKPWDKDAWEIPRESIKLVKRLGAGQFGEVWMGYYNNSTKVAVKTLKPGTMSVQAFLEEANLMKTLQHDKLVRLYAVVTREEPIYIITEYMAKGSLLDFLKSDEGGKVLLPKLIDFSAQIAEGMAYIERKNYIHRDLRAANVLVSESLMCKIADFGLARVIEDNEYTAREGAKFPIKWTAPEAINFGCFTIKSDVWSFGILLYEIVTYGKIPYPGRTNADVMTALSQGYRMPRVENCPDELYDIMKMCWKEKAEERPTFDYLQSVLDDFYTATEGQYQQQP
T1 sequence (P06241 2-537): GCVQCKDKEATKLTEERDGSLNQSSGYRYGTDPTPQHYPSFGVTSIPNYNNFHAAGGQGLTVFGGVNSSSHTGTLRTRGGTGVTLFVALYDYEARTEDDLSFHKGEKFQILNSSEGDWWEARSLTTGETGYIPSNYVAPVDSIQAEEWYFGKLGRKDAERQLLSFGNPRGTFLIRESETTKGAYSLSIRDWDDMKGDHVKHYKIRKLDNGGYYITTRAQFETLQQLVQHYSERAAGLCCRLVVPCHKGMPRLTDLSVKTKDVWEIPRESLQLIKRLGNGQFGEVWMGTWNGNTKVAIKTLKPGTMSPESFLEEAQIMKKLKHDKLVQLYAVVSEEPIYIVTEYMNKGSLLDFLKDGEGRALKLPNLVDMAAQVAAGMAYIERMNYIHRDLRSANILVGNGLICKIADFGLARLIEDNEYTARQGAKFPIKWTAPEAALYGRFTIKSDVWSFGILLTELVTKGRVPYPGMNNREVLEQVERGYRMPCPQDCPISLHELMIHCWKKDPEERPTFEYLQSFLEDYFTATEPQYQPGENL

Take `COc1cc(O)c2c(=O)c(-c3ccc(O[C@@H]4O[C@H](CO)[C@@H](O)[C@H](O)[C@H]4O)cc3)coc2c1` [compound 1]: the IC50 is 8.66 µM in experiment [1] and 4.39 µM in experiment [2].
